Where “and” joins values, the source holds several entries; their conditions need not be identical. Equal values may be shown once.
Assays:
Genome polyprotein [1] = target: T1, Genome polyprotein (dengue virus type 2, UniProt P29990); type: functional, Thailand/16681/1984
Genome polyprotein [2] = target: T1, Genome polyprotein; type: functional, Thailand/16681/1984; remark: listed apart in the source

T1 sequence (P29990 1346-1475 limits assumed): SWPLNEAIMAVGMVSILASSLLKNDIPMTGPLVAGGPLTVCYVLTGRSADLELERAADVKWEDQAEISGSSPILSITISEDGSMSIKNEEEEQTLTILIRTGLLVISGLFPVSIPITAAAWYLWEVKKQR
T1 sequence (P29990 1476-2093 limits assumed): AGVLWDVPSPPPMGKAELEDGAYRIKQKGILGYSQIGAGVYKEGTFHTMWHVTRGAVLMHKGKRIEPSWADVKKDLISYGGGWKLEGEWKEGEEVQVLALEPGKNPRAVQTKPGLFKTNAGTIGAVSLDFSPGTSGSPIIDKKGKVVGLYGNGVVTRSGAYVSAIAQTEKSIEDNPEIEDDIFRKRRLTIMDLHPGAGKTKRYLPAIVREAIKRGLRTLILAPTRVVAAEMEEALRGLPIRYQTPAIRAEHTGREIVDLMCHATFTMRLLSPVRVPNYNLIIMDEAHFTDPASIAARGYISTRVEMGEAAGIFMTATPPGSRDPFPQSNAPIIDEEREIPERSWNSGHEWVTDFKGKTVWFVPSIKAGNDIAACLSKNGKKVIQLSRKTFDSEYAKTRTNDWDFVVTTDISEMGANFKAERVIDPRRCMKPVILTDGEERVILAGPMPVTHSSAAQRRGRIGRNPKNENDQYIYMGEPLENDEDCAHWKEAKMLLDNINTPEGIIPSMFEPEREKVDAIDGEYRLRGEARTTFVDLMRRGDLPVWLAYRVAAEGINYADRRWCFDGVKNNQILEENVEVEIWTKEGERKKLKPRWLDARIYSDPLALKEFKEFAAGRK

SMILES | IC50 (Genome polyprotein [1]) | IC50 (Genome polyprotein [2])
COc1cc(Br)cc(C(=O)Nc2ccc3c(c2)CNC3)c1 | > 99.5 µM | > 100 µM
C[C@@H](N)c1ccc(NC(=O)c2cc(Cl)cc3[nH]ncc23)cc1 | > 99.5 µM | > 100 µM
O=C1NCc2c1cccc2C(=O)Nc1ccc2c(c1)CNC2 | > 99.5 µM | > 100 µM
O=C(NCC(F)F)[C@H](Nc1ccc2c(c1)CNC2)c1cc(Cl)cc(C2CC2)c1 | > 99.5 µM | > 100 µM
CCCN1C(=O)[C@](C#N)(Nc2cccc(-c3nn[nH]n3)c2)c2cc(Cl)ccc21 | > 99.5 µM | > 100 µM
NCc1ccc(NC(=O)c2cc(Cl)cc3[nH]ncc23)cc1F | > 99.5 µM | > 100 µM
CN(C(=O)c1cc(Cl)cc2[nH]ncc12)c1ccc2c(c1)CNC2 | > 99.5 µM | > 100 µM
O=c1[nH]c2cc(Cl)ccc2n1Cc1ccc(-c2nn[nH]n2)cc1 | > 99.5 µM | > 100 µM
O=C(Nc1ccc2c(c1)CNC2)c1cnnc2ccccc12 | > 99.5 µM | > 100 µM
C[C@H]1NCCc2c(-c3ccc4[nH]c(C(=O)O)cc4c3)cc(F)cc21 | > 99.5 µM | > 100 µM
CCOC(=O)N1CCC[C@H]1c1cccc(-c2ccc3[nH]c(C(=O)O)cc3c2)c1 | > 99.5 µM | > 100 µM
Cn1nc(C2CC2)cc1C(=O)Nc1cc(CCCN)ccn1 | > 99.5 µM | > 100 µM
CNC(=O)[C@H](Nc1ccc2c(c1)CNC2)c1cccc2[nH]ncc12 | 81.3 µM | > 100 µM
NS(=O)(=O)c1ccc(C(F)F)cc1-c1ccc2[nH]c(C(=O)O)cc2c1 | > 99.5 µM | > 100 µM
O=C(Nc1ccc2c(c1)CNC2)[C@H]1CCCc2[nH]ncc21 | > 99.5 µM | > 100 µM
Cc1nc(C2CC2)sc1C(=O)Nc1cc(CCCN)ccn1 | > 99.5 µM | > 100 µM
O=C(Nc1ccc2c(c1)CNC2)c1ncnc2sccc12 | > 99.5 µM | > 100 µM
O=C(Nc1cc(Cl)cc(-c2ccc(C3(C(=O)O)CCNCC3)cc2)c1)OCc1ccccc1 | > 99.5 µM | > 100 µM
N[C@H]1CCc2ccc(NC(=O)c3cc(Cl)cc4[nH]ncc34)cc21 | > 99.5 µM | > 100 µM
CCCN1C(=O)[C@](C#N)(Nc2ccc3c(c2)CNC3)c2ccccc21 | > 99.5 µM | > 100 µM
O=C1Cc2c(cccc2C(=O)Nc2ccc3c(c2)CNC3)N1 | 11.8 µM and 17.4 µM and 20.7 µM | 45.6 µM and 19.1 µM
O=C(Nc1ccc2c(c1)CNCCC2)c1cc(Cl)cc2[nH]ncc12 | 42.5 µM | 62.4 µM and 45.8 µM

SMILES | IC50 (Genome polyprotein [1]) | IC50 (Genome polyprotein [2])
O=C(Nc1ccc2c(c1)CNC2)c1cncc(-c2ccccc2)c1 | > 99.5 µM | > 100 µM
O=C(O)C1CCC2(CC1)CC(Cc1c[nH]c3ccc(Cl)cc13)C2 (configuration not stated) | 59.2 µM | 31.4 µM
Cc1cc(-c2ccc3[nH]c(C(=O)O)cc3c2)c(=O)n(Cc2ccccc2)c1 | > 99.5 µM | > 100 µM
O=C(O)c1ccc2nc(Cc3c[nH]c4ccc(Cl)cc34)cn2c1 | > 99.5 µM | > 100 µM
N#Cc1ccc2[nH]cc(Cc3ccc(-c4nnn[nH]4)cc3)c2c1 | > 99.5 µM | 83.8 µM
Cn1ccc(-c2cc(CN)cc([C@@H]3C[C@H]3c3cc(Cl)cc(NC(=O)OCc4ccccc4)c3)c2)n1 | 62.7 µM | > 100 µM
CC(C)(C)OC(=O)Cc1cc(CN)cc(NC(=O)c2cc(Cl)cc(NC(=O)OCc3ccccc3)c2)c1 | > 99.5 µM | > 100 µM
Cn1nc(C(=O)Nc2cc(CCCN)ccn2)cc1C1CC1 | > 99.5 µM | > 100 µM
Clc1cc(CNc2ccc3c(c2)CNC3)c2cn[nH]c2c1 | 18.9 µM and 54.9 µM | > 100 µM
NCc1cc(C(F)(F)F)cc(-c2ccc3[nH]c(C(=O)O)cc3c2)n1 | > 99.5 µM | > 100 µM
O=C(c1cc(Cl)cc2[nH]ncc12)N1C[C@H]2CNC[C@H]2C1 | > 99.5 µM | > 100 µM
Cn1cc(CNC(=O)[C@H](Nc2ccc3c(c2)CNC3)c2cc(Cl)cc(C3CC3)c2)cn1 | > 99.5 µM | > 100 µM
C(#C[C@H](Nc1ccc2c(c1)CNC2)c1cccc2[nH]ncc12)c1ccccc1 | > 99.5 µM | > 100 µM
Cn1nc(C(=O)Nc2ccc3c(c2)CNC3)c2cc(Br)ccc21 | 89.7 µM | > 100 µM
O=C(O)c1cc2cc(-c3cc(Cl)cn4ncnc34)ccc2[nH]1 | > 99.5 µM | > 100 µM
O=C(Nc1ccc2c(c1)COC2)c1cc(Cl)cc2[nH]ncc12 | > 99.5 µM | > 100 µM
O=C(Nc1ccc2c(c1)CN(CC(F)F)C2)c1cc(Cl)cc2[nH]ncc12 | 58.7 µM | > 100 µM
Cn1cc2cc(C#N)cc(-c3ccc4[nH]c(C(=O)O)cc4c3)c2n1 | > 99.5 µM | > 100 µM
CNC(=O)[C@H](Nc1ccc2c(c1)CNC2)c1cc(Cl)cc2[nH]ncc12 | > 99.5 µM | > 100 µM
NCc1ccc(NC(=O)c2cc(Cl)cc3[nH]ncc23)cc1 | > 99.5 µM | > 100 µM
NCc1cc(NC(=O)c2cc(Cl)cc(NC(=O)OCc3ccccc3)c2)cc(-c2ccc3c(c2)C[C@H](C(=O)O)CO3)c1 | 77.2 µM | > 100 µM
O=C(O)c1cc2cc(-c3cccc([C@H]4CCOC4)n3)ccc2[nH]1 | > 99.5 µM | > 100 µM

SMILES | IC50 (Genome polyprotein [1]) | IC50 (Genome polyprotein [2])
O=C(Nc1ccc2c(c1)CNC2)c1cc(=O)[nH]c2c(F)cccc12 | > 99.5 µM | > 100 µM
NCc1cccc([C@@H]2[C@H](C(=O)O)[C@H]2c2cc(N)cc(Cl)c2)c1 | > 99.5 µM | > 100 µM
NCCc1cccc(NC(=O)c2cc(Cl)cc3[nH]ncc23)c1 | > 99.5 µM | > 100 µM
O=C(Nc1ccc2c(c1)[C@H]1CC[C@H]2N1)c1cc(Cl)cc2[nH]ncc12 | > 99.5 µM | > 100 µM
O=C(NCc1ccc2c(c1)CNC2)c1cc(Cl)cc2[nH]ncc12 | > 99.5 µM | > 100 µM
O=C(Nc1ccc2c(c1)CCNCC2)c1cc(Cl)cc2[nH]ncc12 | 47.5 µM | > 100 µM
O=C(c1cc(Cl)cc2[nH]ncc12)N1CC[C@]2(CCNC2)C1 | > 99.5 µM | > 100 µM
O=C(Nc1ccc2c(c1)CNC2)c1cc(Br)cc2[nH]ncc12 | > 99.5 µM | > 100 µM
COC(=O)c1ccc2[nH]cc(Cc3ccc(-c4nnn[nH]4)cc3)c2c1 | > 99.5 µM | 72.4 µM
O=C(c1cc(Cl)cc2[nH]ncc12)N1CCC(C2CCNCC2)CC1 | > 99.5 µM | > 100 µM
O=C1NCc2ccc(NC(=O)c3cc(Cl)cc4[nH]ncc34)cc21 | > 99.5 µM | > 100 µM
CNC(=O)[C@]1(Nc2ccc3c(c2)CNC3)C(=O)Nc2c(OC)cc(Br)cc21 | > 99.5 µM | > 100 µM
O=C(Nc1ccc2c(n1)CNC2)c1cc(Cl)cc2[nH]ncc12 | > 99.5 µM | > 100 µM
NCc1cc(-c2ccncc2)cc([C@@H]2C[C@H]2c2cc(Cl)cc(NC(=O)OCc3ccccc3)c2)c1 | > 99.5 µM | > 100 µM
Cc1ccc(NC(=O)c2cc(Cl)cc3[nH]ncc23)cc1CN | > 99.5 µM | > 100 µM
CC(=O)Nc1cc(Br)cc(C(=O)Nc2ccc3c(c2)CNC3)c1 | > 99.5 µM | > 100 µM
O=C(O)c1ccc(NC(=O)c2cc(Cl)cc3[nH]ncc23)cc1 | > 99.5 µM | > 100 µM
N#C[C@H](Nc1cc(Cl)cc(C2CC2)c1)c1ccc(-c2nn[nH]n2)cc1 | 27.2 µM | 17.9 µM
O=C(Nc1ccc2c(c1)CNC2)c1cc(Br)cc2cccnc12 | > 99.5 µM | > 100 µM
O=C(Nc1ccc2c(c1)CNC2)c1ccc(OCC(F)(F)F)nc1 | > 99.5 µM | > 100 µM
O=C(O)Cc1cn2nc(-c3cc(Cl)cc(NC(=O)OCc4ccccc4)c3)ccc2n1 | > 99.5 µM | > 100 µM
CNC(=O)c1ccnc(NC(=O)c2cc(C3CC3)n(C)c2C)c1 | > 99.5 µM | > 100 µM

SMILES | IC50 (Genome polyprotein [1]) | IC50 (Genome polyprotein [2])
Cc1c(C(=O)Nc2cc([C@H]3CCOC3)ccn2)cc(C2CC2)n1C | > 99.5 µM | > 100 µM
Nc1nccc(C(=O)Nc2ccc3c(c2)CNC3)n1 | > 99.5 µM | > 100 µM
O=C(Nc1cc(Cl)cc(-c2cc(C(=O)O)n(-c3ccc(F)cc3)n2)c1)OCc1ccccc1 | 17.5 µM | 10.6 µM
N[C@H]1CCCc2ccc(NC(=O)c3cc(Cl)cc4[nH]ncc34)cc21 | > 99.5 µM | > 100 µM
N[C@H]1Cc2ccc(NC(=O)c3cc(Cl)cc4[nH]ncc34)cc2C1 | > 99.5 µM | > 100 µM
O=C(O)c1cc2cc(-c3cc(Cl)cc4c3O[C@H](CO)C4)ccc2[nH]1 | > 99.5 µM | > 100 µM
CCc1nc2ccc(Cl)cc2n1Cc1ccc2c(c1)CNC2 | > 99.5 µM | > 100 µM
CNCc1cccc(NC(=O)c2cc(Cl)cc3[nH]ncc23)c1 | 73.3 µM | > 100 µM
CC(C)(C)c1[nH]c2ccc(F)cc2c1Cc1ccc(-c2nnn[nH]2)cc1 | 23.6 µM | 12.1 µM
O=C(O)Cn1nc2ccc(-c3cc(Cl)cc(NC(=O)OCc4ccccc4)c3)nn2c1=O | > 99.5 µM | > 100 µM
CCNCc1ccc(NC(=O)c2cc(Cl)cc3[nH]ncc23)cc1 | > 99.5 µM | > 100 µM
Cc1ccc(Oc2ncccc2C#N)c(-c2ccc3[nH]c(C(=O)O)cc3c2)c1 | 87.2 µM | > 100 µM
O=C(Nc1ccc2c(c1)CNC2)c1cncc(N2CCOCC2)c1 | > 99.5 µM | > 100 µM
N#Cc1cc(C(=O)Nc2ccc3c(c2)CNC3)cc(C(F)(F)F)c1 | > 99.5 µM | > 100 µM
CCn1c(C)cc(C(=O)Nc2cc(CCCN)ccn2)c1C | > 99.5 µM | > 100 µM
Cc1cc(C#N)cc2c(Cc3ccc(-c4nnn[nH]4)cc3)c[nH]c12 | 74.3 µM | 35 µM
COc1nnc(C(F)(F)F)cc1-c1ccc2[nH]c(C(=O)O)cc2c1 | > 99.5 µM | > 100 µM
CCc1nccn1CC(=O)Nc1ccc2c(c1)CNC2 | > 99.5 µM | > 100 µM
COCCCN1Cc2ccc(NC(=O)c3cc(Cl)cc4[nH]ncc34)cc2C1 | > 99.5 µM | > 100 µM
O=C(CSc1cccc(Br)c1)Nc1ccc2c(c1)CNC2 | > 99.5 µM | > 100 µM
